Data as given in article PMC9299836 (eLife, 2022).

Tests used:
mGluR2 [1] = biological target: mGluR2 (Mus musculus, UniProt Q14BI2, INS715F); assay: Live-cell FRET, azi-ECL2 (7TM domain, extracellular loop 2) sensor in HEK293T cells; conditions: glutamate + 10μM modulator, maximal response normalized to 1mM glutamate;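 further: Cy3/Cy5 click-labeled sensor, whole-membrane ROIs per cell, apparent FRET after bleed-through correction, ΔFRET as treatment minus pre-treatment signal, at room temperature, at least three biological replicates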
mGluR2 [2] = biological target: mGluR2 (Mus musculus, UniProt Q14BI2, A548F); assay: Single-molecule FRET (SiMPull) of azi-CRD: population histograms and state occupancy; conditions: N 3;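 further: Cy3/Cy5-labelled receptor from HEK293T cell lysate captured on anti-FLAG surfaces, apparent FRET efficiency computed from donor and acceptor intensities with crosstalk correction, pooled into population histograms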
Sequence of mGluR2 (Mus musculus, UniProt Q14BI2, A548F) (Q14BI2 19-872 A548F): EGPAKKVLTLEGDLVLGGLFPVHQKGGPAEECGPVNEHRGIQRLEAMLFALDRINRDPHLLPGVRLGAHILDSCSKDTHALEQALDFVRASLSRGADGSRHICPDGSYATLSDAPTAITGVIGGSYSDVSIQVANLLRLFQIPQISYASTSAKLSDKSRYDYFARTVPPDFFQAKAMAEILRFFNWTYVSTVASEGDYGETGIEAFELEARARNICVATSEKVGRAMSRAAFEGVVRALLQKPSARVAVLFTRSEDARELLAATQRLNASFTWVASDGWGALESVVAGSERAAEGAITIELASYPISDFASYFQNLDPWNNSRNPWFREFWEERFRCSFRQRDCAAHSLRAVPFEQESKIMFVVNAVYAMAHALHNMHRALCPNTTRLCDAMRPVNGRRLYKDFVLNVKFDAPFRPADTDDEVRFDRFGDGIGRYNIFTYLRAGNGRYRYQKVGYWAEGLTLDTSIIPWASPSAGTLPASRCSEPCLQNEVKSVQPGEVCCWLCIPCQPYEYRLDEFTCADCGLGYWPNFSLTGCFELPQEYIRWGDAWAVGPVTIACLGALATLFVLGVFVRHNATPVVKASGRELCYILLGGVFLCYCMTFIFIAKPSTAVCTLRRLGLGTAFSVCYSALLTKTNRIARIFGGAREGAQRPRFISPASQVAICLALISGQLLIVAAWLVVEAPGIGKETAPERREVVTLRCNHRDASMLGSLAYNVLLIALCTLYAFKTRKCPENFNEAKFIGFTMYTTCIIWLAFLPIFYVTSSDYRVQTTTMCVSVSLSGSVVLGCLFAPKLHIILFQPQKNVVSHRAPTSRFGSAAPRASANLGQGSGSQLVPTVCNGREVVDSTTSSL

Sequence of mGluR2 (Mus musculus, UniProt Q14BI2, INS715F) (Q14BI2 with tags, fused parts or gaps INS715F): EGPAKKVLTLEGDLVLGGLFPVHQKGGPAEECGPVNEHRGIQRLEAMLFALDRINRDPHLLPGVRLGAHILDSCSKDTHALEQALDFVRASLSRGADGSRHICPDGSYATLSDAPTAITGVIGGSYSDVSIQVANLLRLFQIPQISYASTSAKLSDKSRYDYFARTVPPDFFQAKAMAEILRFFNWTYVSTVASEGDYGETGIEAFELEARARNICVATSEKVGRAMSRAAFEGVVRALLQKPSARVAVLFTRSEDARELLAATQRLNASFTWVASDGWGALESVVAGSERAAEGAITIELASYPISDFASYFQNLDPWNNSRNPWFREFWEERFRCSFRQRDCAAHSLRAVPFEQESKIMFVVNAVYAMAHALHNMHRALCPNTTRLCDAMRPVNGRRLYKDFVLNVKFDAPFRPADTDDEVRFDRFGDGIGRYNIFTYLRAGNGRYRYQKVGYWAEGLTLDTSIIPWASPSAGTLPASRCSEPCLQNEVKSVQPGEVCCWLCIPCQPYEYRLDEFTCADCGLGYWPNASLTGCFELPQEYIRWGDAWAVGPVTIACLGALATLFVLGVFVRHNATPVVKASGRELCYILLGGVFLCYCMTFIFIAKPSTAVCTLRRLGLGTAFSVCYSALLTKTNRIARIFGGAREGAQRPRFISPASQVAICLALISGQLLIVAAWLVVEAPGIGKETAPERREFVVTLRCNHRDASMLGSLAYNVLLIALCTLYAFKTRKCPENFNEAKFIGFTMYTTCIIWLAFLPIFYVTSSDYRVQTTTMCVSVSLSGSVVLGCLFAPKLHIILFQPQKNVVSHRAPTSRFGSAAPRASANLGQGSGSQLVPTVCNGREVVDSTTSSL

MNI-137 was tested, and the “Mean normalized azi-ECL2 FRET response” value (mGluR2 [1]; log[Glutamate] (M) -5.82391) was 0.01822, the “Mean normalized azi-ECL2 FRET response” value (mGluR2 [1]; log[Glutamate] (M) -6.52288) was 0 and the “Mean normalized azi-ECL2 FRET response” value (mGluR2 [1]; log[Glutamate] (M) -7) was 0. The “Mean normalized azi-ECL2 FRET response” value (mGluR2 [1]; log[Glutamate] (M) -7.69897) was 0, the “Mean normalized azi-ECL2 FRET response” value (mGluR2 [1]; log[Glutamate] (M) -4.69897) was 0.4672 and the “smFRET Histogram, Mean” value (mGluR2 [2]; FRET 0, 0μM Glutamate + GPT/Pyruvate + 5μM MNI-137) was 5.11E-04. The “smFRET Histogram, Mean” value (mGluR2 [2]; FRET 0.02, 0μM Glutamate + GPT/Pyruvate + 5μM MNI-137) was 6.64E-04, the “smFRET Histogram, Mean” value (mGluR2 [2]; FRET 0.04, 0μM Glutamate + GPT/Pyruvate + 5μM MNI-137) was 0.00218 and the “smFRET Histogram, Mean” value (mGluR2 [2]; FRET 0.06, 0μM Glutamate + GPT/Pyruvate + 5μM MNI-137) was 0.00418. The “smFRET Histogram, Mean” value (mGluR2 [2]; FRET 0.08, 0μM Glutamate + GPT/Pyruvate + 5μM MNI-137) was 0.00801, the “smFRET Histogram, Mean” value (mGluR2 [2]; FRET 0.1, 0μM Glutamate + GPT/Pyruvate + 5μM MNI-137) was 0.01404 and the “smFRET Histogram, Mean” value (mGluR2 [2]; FRET 0.1, 15μM Glutamate + 5μM MNI-137) was 0.0021. For the same substance, the “smFRET Histogram, Mean” value (mGluR2 [2]; FRET 0.12, 0μM Glutamate + GPT/Pyruvate + 5μM MNI-137) was 0.02347, the “smFRET Histogram, Mean” value (mGluR2 [2]; FRET 0.12, 15μM Glutamate + 5μM MNI-137) was 0.00321 and the “smFRET Histogram, Mean” value (mGluR2 [2]; FRET 0.14, 0μM Glutamate + GPT/Pyruvate + 5μM MNI-137) was 0.03681. The “smFRET Histogram, Mean” value (mGluR2 [2]; FRET 0.14, 15μM Glutamate + 5μM MNI-137) was 0.00506, the “smFRET Histogram, Mean” value (mGluR2 [2]; FRET 0.16, 0μM Glutamate + GPT/Pyruvate + 5μM MNI-137) was 0.05131 and the “smFRET Histogram, Mean” value (mGluR2 [2]; FRET 0.16, 15μM Glutamate + 5μM MNI-137) was 0.00784. The “smFRET Histogram, Mean” value (mGluR2 [2]; FRET 0.18, 0μM Glutamate + GPT/Pyruvate + 5μM MNI-137) was 0.06643, the “smFRET Histogram, Mean” value (mGluR2 [2]; FRET 0.18, 15μM Glutamate + 5μM MNI-137) was 0.01263 and the “smFRET Histogram, Mean” value (mGluR2 [2]; FRET 0.2, 0μM Glutamate + GPT/Pyruvate + 5μM MNI-137) was 0.07988. The “smFRET Histogram, Mean” value (mGluR2 [2]; FRET 0.2, 15μM Glutamate + 5μM MNI-137) was 0.01781, the “smFRET Histogram, Mean” value (mGluR2 [2]; FRET 0.22, 0μM Glutamate + GPT/Pyruvate + 5μM MNI-137) was 0.08842 and the “smFRET Histogram, Mean” value (mGluR2 [2]; FRET 0.22, 15μM Glutamate + 5μM MNI-137) was 0.02498. The “smFRET Histogram, Mean” value (mGluR2 [2]; FRET 0.24, 0μM Glutamate + GPT/Pyruvate + 5μM MNI-137) was 0.08863, the “smFRET Histogram, Mean” value (mGluR2 [2]; FRET 0.24, 15μM Glutamate + 5μM MNI-137) was 0.03347 and the “smFRET Histogram, Mean” value (mGluR2 [2]; FRET 0.26, 0μM Glutamate + GPT/Pyruvate + 5μM MNI-137) was 0.08743. For the same substance, the “smFRET Histogram, Mean” value (mGluR2 [2]; FRET 0.26, 15μM Glutamate + 5μM MNI-137) was 0.04243, the “smFRET Histogram, Mean” value (mGluR2 [2]; FRET 0.28, 0μM Glutamate + GPT/Pyruvate + 5μM MNI-137) was 0.07891 and the “smFRET Histogram, Mean” value (mGluR2 [2]; FRET 0.28, 15μM Glutamate + 5μM MNI-137) was 0.05374. For the same substance, the “smFRET Histogram, Mean” value (mGluR2 [2]; FRET 0.3, 0μM Glutamate + GPT/Pyruvate + 5μM MNI-137) was 0.06941, the “smFRET Histogram, Mean” value (mGluR2 [2]; FRET 0.3, 15μM Glutamate + 5μM MNI-137) was 0.06299 and the “smFRET Histogram, Mean” value (mGluR2 [2]; FRET 0.32, 0μM Glutamate + GPT/Pyruvate + 5μM MNI-137) was 0.05758. For the same substance, the “smFRET Histogram, Mean” value (mGluR2 [2]; FRET 0.32, 15μM Glutamate + 5μM MNI-137) was 0.07069, the “smFRET Histogram, Mean” value (mGluR2 [2]; FRET 0.34, 0μM Glutamate + GPT/Pyruvate + 5μM MNI-137) was 0.04784 and the “smFRET Histogram, Mean” value (mGluR2 [2]; FRET 0.34, 15μM Glutamate + 5μM MNI-137) was 0.0754. The “smFRET Histogram, Mean” value (mGluR2 [2]; FRET 0.36, 0μM Glutamate + GPT/Pyruvate + 5μM MNI-137) was 0.03831, the “smFRET Histogram, Mean” value (mGluR2 [2]; FRET 0.36, 15μM Glutamate + 5μM MNI-137) was 0.07714 and the “smFRET Histogram, Mean” value (mGluR2 [2]; FRET 0.38, 0μM Glutamate + GPT/Pyruvate + 5μM MNI-137) was 0.03079. The “smFRET Histogram, Mean” value (mGluR2 [2]; FRET 0.38, 15μM Glutamate + 5μM MNI-137) was 0.07309, the “smFRET Histogram, Mean” value (mGluR2 [2]; FRET 0.4, 0μM Glutamate + GPT/Pyruvate + 5μM MNI-137) was 0.02474 and the “smFRET Histogram, Mean” value (mGluR2 [2]; FRET 0.4, 15μM Glutamate + 5μM MNI-137) was 0.06696. For the same substance, the “smFRET Histogram, Mean” value (mGluR2 [2]; FRET 0.42, 15μM Glutamate + 5μM MNI-137) was 0.05663 and the “smFRET Histogram, Mean” value (mGluR2 [2]; FRET 0.44, 0μM Glutamate + GPT/Pyruvate + 5μM MNI-137) was 0.01517.
